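All cell lines were grown in 96-well plates and treated with compound for 48 hours. GI50 = concentration required for 50% inhibition of growth. The concentration for full growth arrest is given as TGI.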 *1 amine or outer side, *2 acyl side, *3 side chain or, on linkers, in order; H or OH if unused. Where a SMILES comes first, the peptide text is derived from it. Bridges are numbered along the chain shown (N, C = ends). Roman numbers before positions name the chains, in order. [ ]: non-standard residue; d: D form. Actinocin(9to1) = Cc1c2oc3c(C)ccc(C(=O)[*:1])c3nc-2c(C(=O)[*:2])c(N)c1=O; NMeV = CN[CH](C(=O)O)C(C)C; Sar = CNCC(=O)O
Tests used:
Assay in all cases: NCI-60 cell line screen, 48 h
[1] = system: HS 578T breast
[2] = system: HL-60(TB) leukemia
[3] = system: PC-3 prostate
[4] = system: SK-MEL-5 melanoma
[5] = system: NCI-H460 lung
[6] = system: SK-MEL-2 melanoma
[7] = system: RPMI-8226 leukemia
[8] = system: K-562 leukemia
[9] = system: UACC-62 melanoma
[10] = system: A549 NSCLC
[11] = system: BT-549 breast
[12] = system: MCF7 breast
[13] = system: SR leukemia
[14] = system: HOP-62 NSCLC
[15] = system: LOX IMVI melanoma
[16] = system: OVCAR-8 ovarian
[17] = system: MDA-MB-435

| Structure (SMILES) | TGI [1] [µM] | TGI [2] [µM] | TGI [3] [µM] | TGI [4] [µM] | TGI [5] [µM] | TGI [6] [µM] | TGI [7] [µM] | TGI [8] [µM] | TGI [9] [µM] | TGI [10] [µM] | TGI [11] [µM] | TGI [12] [µM] | TGI [13] [µM] | TGI [14] [µM] | TGI [15] [µM] | TGI [16] [µM] | TGI [17] [µM] | GI50 [2] [µM] |
| --- | --- | --- | --- | --- | --- | --- | --- | --- | --- | --- | --- | --- | --- | --- | --- | --- | --- | --- |
| CCCCCCc1cc2cc(-c3cn4ccsc4n3)c(=O)oc2cc1O | > 77 | > 100 | > 100 | > 44.9 | > 100 | > 100 | > 100 | > 100 | > 50.8 | > 100 | > 100 | > 100 | > 100 | > 100 | > 100 | > 71.8 | > 27.5 |  |
| N#CSC#CCCC#CSC#N | 76.2 | > 100 | 48.3 | 34.8 | 48.4 | 43.1 |  | > 100 | 31.8 | 42 | 47.7 | 48.2 | > 100 | 33.7 | 40.5 | 60.7 | 56.2 |  |
| O=C(O)C1C2c3ccccc3C(c3ccccc32)C1C(=O)NCC1CC1 (configuration not stated) | > 100 | 77.2 | > 100 | > 100 | > 100 | > 100 | 85.3 | > 100 | > 100 | > 100 | > 100 | > 100 | > 100 | > 100 | > 100 | > 100 | > 100 |  |
| COC(=O)[C@]1(C)CCC[C@@]2(C)C1CC[C@@]13C=C(C(C)C)[C@@H](CC1=O)CC23 (some centres not stated) | 43.9 | 36.4 | > 100 | 33 | > 100 |  | 40.1 | 30.2 | > 100 | > 100 | 63.4 | 64 | 30.9 | 83.9 |  | > 100 | > 100 |  |
| Cc1ccc2nc(-c3ccccc3)cc(=O)n2c1 | > 100 | > 100 | > 100 | > 100 | > 100 |  | > 100 | > 100 | > 100 | > 100 | > 100 | > 100 | > 100 | > 100 |  | > 100 | > 100 |  |
| Cc1nn(C(=O)Cc2ccccc2)c2c1C(c1ccccc1)SC(N)=N2 (configuration not stated) | > 100 | > 100 | > 100 | > 100 | > 100 |  | > 100 | > 100 | > 100 | > 100 | > 100 | > 100 | > 100 | > 100 | > 100 | > 100 | > 100 |  |
| O=c1[nH]c(=O)n(C2COC(CO)C2O)cc1F (configuration not stated) | > 100 |  | > 100 | > 100 | > 100 | > 100 | > 100 | > 100 | > 100 | > 100 | > 100 | > 100 | > 100 | > 100 | > 100 | > 100 | > 100 |  |
| COc1cc(S(=O)(=O)Nc2ccc(-c3csc(N4C(=O)CSC4c4cccc(Oc5ccccc5)c4)n3)cc2)ccc1Cl (configuration not stated) | > 100 | 48.9 | > 100 | > 100 |  |  | > 100 | > 100 | > 100 |  | > 100 | 51.7 | > 100 | > 100 | > 100 | > 100 | > 100 |  |
| CC(=O)CC1CCC(=O)/C=C/C(=O)OC(CC(C)=O)CCC(=O)/C=C/C(=O)O1 (configuration not stated) | 69.9 |  | 28.6 | 27.3 | 36.3 | 19.8 | > 100 | > 20.9 | 29.1 | 43 | 6.7 | 27.6 | > 100 | 42.8 | 35.1 | 53.5 | 32 |  |
| O=C1c2sc(-c3ccc(Cl)cc3)cc2-n2cccc21 | > 100 |  | > 100 | > 100 | > 100 | > 100 | > 100 | > 100 | > 100 | > 100 | > 100 | > 100 | > 100 | > 100 | > 100 | > 100 | > 100 |  |
| CC(C)C(NC(=O)Oc1ccccc1)C(=O)NC1c2c(Br)sc(Br)c2C(=O)C1O (configuration not stated) | > 25 | > 25 | > 25 | 8.36 | 8.64 | 17.7 |  | 17.4 | 8.08 | > 25 | 8.16 | > 25 |  |  | 8.91 | 9.15 | 13.1 |  |
| CSC(=O)c1sc(SC)[n+](-c2ccccc2)c1O | > 100 |  | 29.8 | 55.7 | 86.3 | 53.1 | > 100 | > 100 | 29.7 | > 100 | 29.4 | 52.8 | > 100 | 32.1 | 44.8 | 59.7 | 35.5 |  |
| O=S(=O)(O)c1cc(N=Nc2c(O)ccc3ccccc23)cc2c(S(=O)(=O)O)cccc12 | > 100 | > 100 | > 100 | > 100 | > 100 | > 100 | > 100 | > 100 | > 100 | > 100 | > 100 | > 100 | > 100 | > 100 |  | > 100 | > 100 |  |
| CC1=NN(c2nc(N)nc(COc3ccc(N)cc3)n2)C(C)(C)C1 | > 100 | > 100 | > 100 | > 100 | > 100 | > 100 | > 100 | > 100 | > 100 |  | > 100 | > 100 | > 100 | > 100 | > 100 | > 100 | > 100 |  |
| Nc1ncc2c(n1)-c1ccccc1OC2N1CCCCC1 (configuration not stated) | > 100 | > 100 | > 100 | > 100 | > 100 | > 100 | > 100 |  | > 100 | > 100 | > 100 | > 100 | > 100 |  | > 100 | > 100 | > 100 |  |
| C[N+]12C=CC=C1C(N1CCCC1)c1scc(-c3ccc(Br)cc3)c12 (configuration not stated) | 9.6 |  | 99.2 | 16.1 | > 84.7 | 17.3 | 28.9 | > 89.9 | 80.3 | > 100 | 17.7 | > 90.1 | 35.5 | 98.2 | > 100 | > 100 | 76.9 |  |
| COC(=O)c1ccc(Cc2cc(Cc3ccc(C(=O)OC)cc3)cc(Cc3ccc(C(=O)OC)cc3)c2)cc1 | > 25 | > 25 | > 25 |  | > 25 | > 25 | > 25 | > 25 | > 25 | > 25 | > 25 | > 25 | > 25 | > 25 | > 25 | > 25 | > 25 |  |
| O=C1c2ccccc2-n2nnnc2C2CSCN12 (configuration not stated) | > 100 |  | > 100 | > 100 | > 100 | > 100 | > 100 | > 100 | > 100 | > 100 | > 100 | > 100 | > 100 | > 100 | > 100 | > 100 | > 100 |  |
| O=C(C(=O)n1ccc2ccccc21)n1ccc2ccccc21 | > 100 |  | > 100 | > 100 | > 100 | > 100 | > 100 | > 100 | > 100 | > 100 | > 100 | > 100 | > 100 | > 100 | > 100 | > 100 | > 100 |  |
| COc1ccc(C(SCCO)(c2ccccc2)c2ccc(OC)cc2)cc1 | > 44.1 | 47.2 | 28.9 | 21.1 | 17.2 | 25.8 | 69.1 | > 72.9 | 24.8 | 27.3 | 36.8 | 18.5 |  | 42 | 33.8 | 43 | 20.5 |  |
| Cc1ccc(S[C@@H](C)[C@@](O)(CF)CN(Cc2ccccc2)C(=O)C(F)(F)F)cc1 | 61.7 | 46.2 | 94.3 |  | 36.9 | 36.5 |  |  | 34.8 | 32.1 | 46.5 | 58.2 |  |  | > 100 | > 100 | 40.4 |  |
| CON(C)C(=O)C(C)N(Cc1ccccc1)Cc1ccccc1 (configuration not stated) | > 100 | > 100 | > 100 | > 100 | > 100 |  | > 100 | > 100 | > 100 | > 100 | > 100 | > 100 | > 100 | > 100 |  | > 100 | > 100 |  |
| COc1ccc2oc3c(C)cc4c(OC)nnc(OC)c4c3c2c1 | > 100 | > 100 | > 100 | > 100 | > 100 | > 100 | > 100 | > 100 | > 100 | > 100 | > 100 | > 100 |  | > 100 | > 100 | > 100 | > 100 |  |
| COc1ccc(S(=O)(=O)n2c3c(c4ccccc42)[C@@H]2[C@@H](CCCN2C(=O)CS(=O)c2ccc(C)cc2)[C@H](Cl)C3)cc1 (some centres not stated) | > 100 | > 100 | > 100 | > 100 | > 100 | > 100 |  | > 100 | > 100 | > 100 | > 100 | > 100 | > 100 | > 100 | > 100 | > 100 | > 100 |  |
| CC(C)=C[C@H]1C[C@H](C)[C@H]2CC[C@H](C)c3c2c1c(C)c1ncoc31 | 45 | 44.8 | 35.2 | 28.6 | 35.6 | 31.1 | 36.9 | > 100 | 32.9 | 32.3 | 36.3 | 30.5 | 40.9 |  | 37.7 | 36.8 | 38.9 |  |
| Cc1c2oc3c(C)ccc(C(=O)NC4C(=O)NC(C(C)C)C(=O)N5CCCC5C(=O)N(C)CC(=O)N(C)C(C(C)C)C(=O)OC4C)c3nc-2c(C(=O)NC2C(=O)NC(C(C)C)C(=O)N3CCCC3C(=O)N(C)CC(=O)N(C)C(C(C)C)C(=O)OC2C)c(N)c1=O (configuration not stated) (I: TVP[Sar][NMeV] / II: TVP[Sar][NMeV]; ester I:1-I:C, II:1-II:C; linker I:N-II:N via Actinocin(9to1); configuration not given here) | 0.00439 | 0.0237 | 0.0317 | 0.0153 | 0.00126 | 0.00295 | > 1 |  | 0.00192 | > 0.867 | 0.0292 | 0.00342 |  | 0.00696 |  | 0.00772 | 0.0125 | 0.000288 |
| O=C1/C(=C\c2ccc(Cl)cc2Cl)Sc2scc(-c3ccc(O)c(O)c3)[n+]21 | > 100 | 29.8 | 36.4 | 22.9 | 48.2 | 35.5 |  |  | 22.4 | 44.1 | 46.7 | 73.2 |  | 30.1 | 40.8 | 35.2 | 57.7 |  |
| CCOC(=O)C(=[N+]=[N-])C(=O)CN1C(=O)c2ccccc2C1=O | > 100 |  | > 100 | > 100 | > 100 | > 100 |  | > 100 | > 100 | > 100 | > 100 | > 100 |  | > 100 |  | > 100 | > 100 |  |

From PubChem BioAssay (NCI)
